This note sets out measurements from US11180462B2, “Microbiocidal oxadiazole derivatives” (SYNGENTA PARTICIPATIONS AG, priority 2015, dated 2021).

SMILES strings stand for the structures.

As a reminder, the melting point is the temperature, or range, at which the solid turns liquid.

Data set [1] relates to Glomerella lagenarium (Colletotrichum lagenarium). As to the kind of experiment: Fungicidal activity against Glomerella lagenarium (Colletotrichum lagenarium) liquid culture / cucumber / preventative (anthracnose). It counts as cell-based. As to conditions: Colletotrichum orbiculare; 20 ppm in the applied formulation; liquid culture (PDB), growth inhibition measured photometrically after 3 to 4 days; compared to untreated control; read-out: disease control. The procedure, abridged:
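Photometric read-out of fungal growth after 2–7 days, expressed as percent antifungal activity versus untreated check. Cryo-stored conidia in PDB; compound at 20 ppm; dark, 24 °C, 96% RH.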

The test system of data set [2] is Puccinia recondita f. Sp. Tritici. Briefly: Fungicidal activity against Puccinia recondita f. sp. tritici / wheat / leaf disc preventative (brown rust). It counts as in vivo. As to conditions: foliar, 200 ppm in the applied formulation, wheat leaf segments, preventative, compared to untreated control leaf disks, read-out: disease control. The procedure, abridged: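 Compound application precedes infection: segments of wheat cv. Kanzler, sprayed at 200 ppm, are inoculated with a spore suspension after 1 day. Incubation is at 19° C. with 75% relative humidity and 12 h light/12 h darkness, and control versus untreated leaves is rated 7 to 9 days post-application.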

The subject of data set [3] is Phakopsora Pachyrhizi. As to the kind of experiment: Fungicidal activity against Phakopsora pachyrhizi / soybean / leaf disc preventative (Asian soybean rust). It counts as in vivo. The following applies: foliar, 200 ppm in the applied formulation, soybean leaf disks, compared to untreated control leaf disks, read-out: disease control. The procedure, abridged:
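Preventative soybean leaf-disc test: discs on water agar sprayed with diluted formulated compound, inoculated one day later with spores on the lower surface. Held 24–36 h dark at 20°C, 75% rh, then 12 h light/day; percent disease control versus untreated discs scored 12–14 days after application.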

In data set [4] the test system is Puccinia recondita f. Sp. Tritici. As to the kind of experiment: Fungicidal activity against Puccinia recondita f. sp. tritici / wheat / leaf disc curative (brown rust). As to conditions: foliar, 24 h, 200 ppm in the applied formulation, wheat leaf segments, curative (applied 1 day after inoculation), compared to untreated control leaf disks, read-out: disease control. It counts as in vivo. In outline: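 % disease control vs untreated, scored 6–8 d post-application. Wheat cv. Kanzler segments, spore-inoculated, dark 19° C/75% RH; formulated cpd applied 1 d post-inoc; then 19° C, 75% RH, 12 h L/12 h D.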

The compound `O=C(C1CC1)N(Cc1ccc(-c2noc(C(F)(F)F)n2)cc1)C1COC1` [Compound 1.605, N-(oxetan-3-yl)-N-[[4-[5-(trifluoromethyl)-1,2,4-oxadiazol-3-yl]phenyl]methyl]-cyclopropane-carboxamide] came in with a melting point of 89.5 to 94 °C. Further, the inhibition of growth at 20 ppm in data set [1] is not below 80%. Further, the pest or weed control at 200 ppm in data set [2] is not below 80%. In addition, in data set [3], the pest or weed control at 200 ppm is not below 80%. For the same compound, the pest or weed control at 200 ppm in data set [4] was not below 80%.

`CON(Cc1ccc(-c2noc(C(F)(F)F)n2)cc1)C(=O)NCC(F)(F)F` [Compound 3.38, 1-methoxy-3-(2,2,2-trifluoroethyl)-1-[[4-[5-(trifluoromethyl)-1,2,4-oxadiazol-3-yl]phenyl]methyl]urea]: the melting point lay within 95 to 98 °C. Also, the inhibition of growth at 20 ppm in data set [1] was not below 80%. In addition, the pest or weed control at 200 ppm in data set [2] was not below 80%. The pest or weed control at 200 ppm in data set [3] was not below 80%. Moreover, in data set [4], the pest or weed control at 200 ppm was not below 80%.

As to `CON(Cc1ccc(-c2noc(C(F)(F)F)n2)cc1)C(=O)C(NC(=O)C1CC1)C(C)C` (centres unmarked) [Compound 1.54, N-[1-(methoxy-[[4-[5-(trifluoromethyl)-1,2,4-oxadiazol-3-yl]phenyl]methyl]carbamoyl]-2-methyl-propyl]-cyclopropane-carboxamide], the melting point is 104.4 to 109 °C. Also, in data set [1], the inhibition of growth at 20 ppm is not below 80%. In data set [2], the pest or weed control at 200 ppm is not below 80%. In addition, in data set [3], the pest or weed control at 200 ppm was not below 80%. In data set [4], the pest or weed control at 200 ppm is not below 80%.

`C#CCNC(=O)N(Cc1ccc(-c2noc(C(F)(F)F)n2)cc1)OC` [Compound 3.43, 1-methoxy-3-prop-2-ynyl-1-[[4-[5-(trifluoromethyl)-1,2,4-oxadiazol-3-yl]phenyl]methyl]urea] registered a melting point of 88.9 to 90.6 °C. The inhibition of growth at 20 ppm in data set [1] was not below 80%. Further, the pest or weed control at 200 ppm in data set [2] was not below 80%. Also, the pest or weed control at 200 ppm in data set [3] is not below 80%. In addition, the pest or weed control at 200 ppm in data set [4] was not below 80%.

Take `CON(C)C(=O)N(Cc1ccc(-c2noc(C(F)(F)F)n2)cc1)OC` [Compound 3.3, 1,3-dimethoxy-1-methyl-3-[[4-[5-(trifluoromethyl)-1,2,4-oxadiazol-3-yl]phenyl]methyl]urea]: the melting point was 74 to 77 °C. For the same compound, the inhibition of growth at 20 ppm in data set [1] was not below 80%. Moreover, in data set [2], the pest or weed control at 200 ppm is not below 80%. In data set [3], the pest or weed control at 200 ppm was not below 80%. Besides, the pest or weed control at 200 ppm in data set [4] is not below 80%.

Compound `CON(Cc1ccc(-c2noc(C(F)(F)F)n2)cc1)C(=O)NCC1CC1` [Compound 3.6, 3-(cyclopropylmethyl)-1-methoxy-1-[[4-[5-(trifluoromethyl)-1,2,4-oxadiazol-3-yl]phenyl]methyl]urea] had a melting point of 77 to 81.4 °C. Besides, the inhibition of growth at 20 ppm in data set [1] is not below 80%. For the same compound, the pest or weed control at 200 ppm in data set [2] is not below 80%. Moreover, the pest or weed control at 200 ppm in data set [3] was not below 80%. Further, in data set [4], the pest or weed control at 200 ppm was not below 80%.

`CON(Cc1ccc(-c2noc(C(F)(F)F)n2)cc1)C(N)=O` [Compound 3.32, 1-methoxy-1-[[4-[5-(trifluoromethyl)-1,2,4-oxadiazol-3-yl]phenyl]methyl]urea] had a melting point of 112.2 to 114.7 °C. Also, in data set [1], the inhibition of growth at 20 ppm was not below 80%. In addition, in data set [2], the pest or weed control at 200 ppm is not below 80%. Besides, in data set [3], the pest or weed control at 200 ppm was not below 80%. Further, the pest or weed control at 200 ppm in data set [4] was not below 80%.

`CCONC(=O)N(Cc1ccc(-c2noc(C(F)(F)F)n2)cc1)OC` [Compound 3.18, 3-ethoxy-1-methoxy-1-[[4-[5-(trifluoromethyl)-1,2,4-oxadiazol-3-yl]phenyl]methyl]urea] yielded a melting point of 107 to 110 °C. Besides, in data set [1], the inhibition of growth at 20 ppm is not below 80%. The pest or weed control at 200 ppm in data set [2] is not below 80%. The pest or weed control at 200 ppm in data set [3] was not below 80%. In addition, the pest or weed control at 200 ppm in data set [4] is not below 80%.

Compound `CON(Cc1ccc(-c2noc(C(F)(F)F)n2)cc1)C(=O)NC1(C#N)CC1` [Compound 3.47, 3-(1-cyanocyclopropyl)-1-methoxy-1-[[4-[5-(trifluoromethyl)-1,2,4-oxadiazol-3-yl]phenyl]methyl]urea] returned a melting point of 106 to 109 °C. Moreover, the inhibition of growth at 20 ppm in data set [1] was not below 80%. In data set [2], the pest or weed control at 200 ppm was not below 80%. Also, the pest or weed control at 200 ppm in data set [3] is not below 80%. For the same compound, in data set [4], the pest or weed control at 200 ppm is not below 80%.

In the case of `COCC(=O)N(O)Cc1ccc(-c2noc(C(F)(F)F)n2)cc1` [Compound 1.606, N-hydroxy-2-methoxy-N-[[4-[5-(trifluoromethyl)-1,2,4-oxadiazol-3-yl]phenyl]methyl]-acetamide], the melting point was 144.4 to 147.8 °C. The inhibition of growth at 20 ppm in data set [1] was not below 80%. Also, in data set [2], the pest or weed control at 200 ppm is not below 80%. Moreover, in data set [3], the pest or weed control at 200 ppm was not below 80%. For the same compound, the pest or weed control at 200 ppm in data set [4] was not below 80%.
